Experimental data published in ChEMBL document CHEMBL3994653, “Parallel fluorescent probe synthesis based on the large-scale preparation of BODIPY FL propionic acid” (Bioorg Med Chem Lett, 2017).

These molecules were tested against T1, Steroid hormone receptor ERR1 (Homo sapiens, UniProt P11474) (assay: Inverse agonist activity at GAL4-fused human ERRalpha expressed in HEK293 cells assessed as inhibition of transcriptional activity after 20 hrs by luciferase reporter gene assay).
T1 sequence (P11474 whole entry): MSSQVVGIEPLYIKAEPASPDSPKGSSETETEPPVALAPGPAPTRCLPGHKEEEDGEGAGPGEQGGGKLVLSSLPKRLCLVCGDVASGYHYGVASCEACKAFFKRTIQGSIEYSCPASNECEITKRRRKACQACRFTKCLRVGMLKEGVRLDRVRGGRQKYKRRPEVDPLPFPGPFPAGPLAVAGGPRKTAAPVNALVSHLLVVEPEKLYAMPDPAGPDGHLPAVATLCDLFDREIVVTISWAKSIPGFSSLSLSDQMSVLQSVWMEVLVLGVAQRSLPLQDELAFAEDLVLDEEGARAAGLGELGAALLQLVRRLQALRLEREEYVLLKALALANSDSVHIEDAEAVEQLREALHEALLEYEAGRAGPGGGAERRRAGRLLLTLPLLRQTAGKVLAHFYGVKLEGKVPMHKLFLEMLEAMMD
Assay type: cell-based

Row | Compound | IC50 [nM]
1 | CC(=O)c1ccc(N2CCN(C(=O)c3cc4c(C)nn(Cc5cccc(OCc6ccc(CNC(=O)CCC7=[N+]8C(=Cc9c(C)cc(C)n9[B-]8(F)F)C=C7)cc6)c5)c4s3)C[C@H]2C)nc1 | 170
2 | CC(=O)c1ccc(N2CCN(C(=O)c3cc4c(C)nn(Cc5cccc(OCCCCCNC(=O)CCC6=[N+]7C(=Cc8c(C)cc(C)n8[B-]7(F)F)C=C6)c5)c4s3)C[C@H]2C)nc1 | 80
3 | CC(=O)c1ccc(N2CCN(C(=O)c3cc4c(C)nn(Cc5cccc(OCC6CCN(C(=O)CCC7=[N+]8C(=Cc9c(C)cc(C)n9[B-]8(F)F)C=C7)C6)c5)c4s3)C[C@H]2C)nc1 (some centres not stated) | 770
4 | CC(=O)c1ccc(N2CCN(C(=O)c3cc4c(C)nn(Cc5cccc(OCCCNC(=O)CCC6=[N+]7C(=Cc8c(C)cc(C)n8[B-]7(F)F)C=C6)c5)c4s3)C[C@H]2C)nc1 | 490
5 | CC(=O)c1ccc(N2CCN(C(=O)c3cc4c(C)nn(Cc5cccc(OCCOCCOCCOCCNC(=O)CCC6=[N+]7C(=Cc8c(C)cc(C)n8[B-]7(F)F)C=C6)c5)c4s3)C[C@H]2C)nc1 | 570
6 | CC(=O)c1ccc(N2CCN(C(=O)c3cc4c(C)nn(Cc5cccc(OCCOCCNC(=O)CCC6=[N+]7C(=Cc8c(C)cc(C)n8[B-]7(F)F)C=C6)c5)c4s3)C[C@H]2C)nc1 | 280
7 | CC(=O)c1ccc(N2CCN(C(=O)c3cc4c(C)nn(Cc5cccc(OCC6CCN(C(=O)CCC7=[N+]8C(=Cc9c(C)cc(C)n9[B-]8(F)F)C=C7)CC6)c5)c4s3)C[C@H]2C)nc1 | 210
8 | COCCOc1cccc(Cn2nc(C)c3cc(C(=O)N4CCN(c5ccc(C(C)=O)cn5)[C@H](C)C4)sc32)c1 | 22
9 | CC(=O)c1ccc(N2CCN(C(=O)c3cc4c(C)nn(Cc5cccc(OCCCCNC(=O)CCC6=[N+]7C(=Cc8c(C)cc(C)n8[B-]7(F)F)C=C6)c5)c4s3)C[C@H]2C)nc1 | 170
10 | CC(=O)c1ccc(N2CCN(C(=O)c3cc4c(C)nn(Cc5cccc(OCC6CN(C(=O)CCC7=[N+]8C(=Cc9c(C)cc(C)n9[B-]8(F)F)C=C7)CCO6)c5)c4s3)C[C@H]2C)nc1 (some centres not stated) | > 1000
11 | CC(=O)c1ccc(N2CCN(C(=O)c3cc4c(C)nn(Cc5cccc(OCCNC(=O)CCC6=[N+]7C(=Cc8c(C)cc(C)n8[B-]7(F)F)C=C6)c5)c4s3)C[C@H]2C)nc1 | 650
12 | CC(=O)c1ccc(N2CCN(C(=O)c3cc4c(C)nn(Cc5cccc(OCCOCCOCCNC(=O)CCC6=[N+]7C(=Cc8c(C)cc(C)n8[B-]7(F)F)C=C6)c5)c4s3)C[C@H]2C)nc1 | 390
